Data published in patent US20090298707A1, “SPARSE MATRIX SYSTEM AND METHOD FOR IDENTIFICATION OF SPECIFIC LIGANDS OR TARGETS” (priority 2008, published 2009).
Entries after “also recorded” stand apart in the source; their conditions may differ.

Key:
[1] = test system: Candida albicans cells (strain 4741); assay: Pilot library binding to Candida albicans cells; conditions: fluorescence image
Method: (§1) Peptide samples were prepared at a concentration of 25 μM for screening against a variety of organisms by exposing immobilized bacteria to labeled peptides. For bacterial cell binding assays, cells were grown overnight, washed, and immobilized in a polylysine-coated 96-well plate. Fluorescein-labeled peptide samples were applied to immobilized bacteria, incubated for 10 minutes and washed extensively to remove unbound peptide. Samples were visualized by fluorescence microscopy. For each peptide, both brightfield and fluorescence images were collected, and camera and microscope settings were not altered between images. The locations of cells and background regions were determined using the brightfield images; those regions were then selected in the fluorescence images for quantitation of pixel values for determination of relative fluorescence intensities (represented as bacterial fluorescence/background fluorescence) using the GNU Image Manipulation Program (The GIMP, see, e.g., www.gimp.org).
(§2) The use of this technology is not limited to bacterial surfaces.

[2] = test system: Chinese Hamster Ovary (CHO) cells; assay: Pilot library binding to CHO cells; conditions: fluorescence image
Method: as §1, §2

S. aureus AM1 = assay: Pulldown binding assay, Langmuir isotherm fit, S. aureus; set-up: species or system Staphylococcus aureus; conditions: for Langmuir Affinity (Ka): association constant from Langmuir isotherm fit, fluorescein-labeled peptide 0-100 μM; for Monolayer Concentration (N): maximum surface concentration from Langmuir fit
From the text: (§3) To investigate whether the changes in the observed level of binding were due to changes in the affinities or avidities of the refined peptides for cell surfaces, binding curves were generated for selected peptides and fit to the Langmuir isotherm (where possible), the simplest model describing binding to surfaces (peptides showing either complex or nonspecific binding isotherms were excluded from this analysis).
(§4) Measurements were taken of the absorbance of the labeled peptide at 488 nm (the peak absorbance of the fluorescein label) before and after exposure to the cells. The amount of peptide bound was calculated by comparing the ratio of the final (Af) and initial (Ai) absorbances to the initial concentration (C0)[Cbound=C0(1−(Af/Ai))]. Bacterial surface area per sample was calculated using a stage micrometer to determine the average cell diameter for each species (1.0+/−0.1 μm for S. aureus AM1, 2.7+/−0.1 μm for M. luteus MS2), treating individual cells as discrete spheres. Average cell concentration per unit OD600 was calculated using a hemocytometer.
(§5) Plots were then generated of the amount of peptide bound per m^2 of bacterial surface area vs. the concentration of unbound peptide at equilibrium. Where possible, the resulting isotherms were fit to the Langmuir isotherm (P/A=(KaNCeq)/(1+KaCeq), where P/A represents the molar amount of peptide bound per unit of bacterial surface area, Ka is the association constant of the peptide with the bacterial surface (L/Mol), N is the maximum surface concentration (mol/m^2), and Ceq is the molar concentration of unbound peptide at equilibrium) (Calis et al. (1995) Pharm Res 12(7): 1072-1076). Data plots and curvefits were obtained using Kaleidagraph (Synergy Software).

M. luteus MS2 = assay: Pulldown binding assay, Langmuir isotherm fit, M. luteus; set-up: species or system Micrococcus luteus; conditions: for Langmuir Affinity (Ka): association constant from Langmuir isotherm fit; for Monolayer Concentration (N): maximum surface concentration from Langmuir fit
From the text: as §3, §4, §5

[3] = test system: immobilized S. aureus cells; assay: Fluorescence microscopy binding of labeled peptides to immobilized bacteria, S. aureus; set-up: species or system Staphylococcus aureus; conditions: for Binding to S. aureus (fluorescent staining): 25 μM fluorescein-labeled peptide, 10 minutes, immobilized cells
Method: as §1
The following bacterial species and strains were used: Lactobacillus casei (strain), Escherichia coli (W3110), Enterococcus faecium (strain), Streptococcus mutans (UA140), Streptococcus mitis (ATCC 903), Streptococcus gordonii (NY101), Pseudomonas aeruginosa(strain K), Klebsiella pneumoniae (KAY2026), Myxococcus xanthus (Strains DK1622, wildtype, and difA, exopolysaccharide deficient^21), Micrococcus luteus (strain MS2, a community isolate), Staphylococcus epidermidis (strain), and Staphylococcus aureus(strains, and AM1, a methicillin/oxacillin-resistant community isolate).
For isolation of community-acquired S. aureus and M. luteus strains (strains MS2 and AM1), swabs were collected from the nostrils of several volunteers and streaked on Brain-Heart Infusion (BHI) agar and incubated at 37° C. overnight. Yellow colonies were isolated and typed (Microbial ID, Inc., Newark, Del.). Antibiotic resistance was assayed by plating on BHI in the presence of various antibiotics. Commercially available antibiotic susceptibility test disks were used to assay for oxacillin resistance (BD Biosciences), according to the manufacturer's instructions. Due to the difficulty of obtaining methicillin, oxacillin resistance was used as a proxy for methicillin resistance in isolated strains.^22
The peptides comprising these two refined libraries were synthesized, labeled, and screened against immobilized S. aureus cells exactly as for the original pilot library.
(§6) To examine the specificities of the peptides identified in this experiment, a diverse panel of various strains of bacteria was assembled, consisting of Lactobacillus casei, Escherichia coli, Enterococcus faecalis, Streptococcus mutans, Streptococcus mitis, Streptococcus gordonii, Pseudomonas aeruginosa, Klebsiella pneumoniae, Micrococcus luteus (strain MS2), Staphylococcus epidermidis, and two strains of Staphylococcus aureus: a methicillin/oxacillin-sensitive community isolate and our methicillin/oxacillin-resistant community isolate of (strain AM1). Peptides 3C and 4D from the original pilot library were screened for binding against these bacteria by fluorescence microscopy, and images were analyzed as before.

M. luteus = assay: Fluorescence microscopy binding of labeled peptides to immobilized bacteria, M. luteus; set-up: species or system Micrococcus luteus; conditions: 25 μM fluorescein-labeled peptide, immobilized cells
Method: as §1, with “www.gimp.org). […]” for “www.gimp.org).”
as §6

[4] = test system: diverse panel of various strains of bacteria; assay: Specificity screen by fluorescence microscopy against a bacterial panel; type: binding; conditions: bacteria other than S. aureus and M. luteus
Method: as §1, with “www.gimp.org). […]” for “www.gimp.org).”
as §6

Substance: Pilot Library 3A: pilot library 9-mer, SEQ ID NO:11 (WWSYWWTQW; synthetic pilot library peptide A3)
- Binding to C. albicans [1]: binding
- Binding to CHO cells [2]: binding

Substance: Pilot Library 3C: pilot library 9-mer, SEQ ID NO:23; became A1 of the in-plane matrix (SEQ ID NO:46) (LISYILTQL; synthetic pilot library peptide C3)
- Langmuir Affinity (Ka) (S. aureus AM1): 5.6 ± 0.9 M^−1 × 10000
- Monolayer Concentration (N) (S. aureus AM1): 0.31 ± 0.2 Mol/m^2 × 0.0001
- Langmuir Affinity (Ka) (M. luteus MS2): 4 ± 1 M^−1 × 10000
- Monolayer Concentration (N) (M. luteus MS2): 0.12 ± 0.02 Mol/m^2 × 0.0001
- Binding to S. aureus (fluorescent staining) [3]: Binding was clearly seen; also recorded: binds well
- Binding to S. aureus (fluorescent staining) ([3]; listed as Pilot Library C3): some of the brightest unique staining
- Binding to M. luteus (fluorescent staining) (M. luteus): Binding was clearly seen; also recorded: binds well
- Binding to the other bacteria of the panel [4]: significant levels of binding to several of the other bacteria tested; also recorded: significant binding to several strains

Substance: Pilot Library 4D: pilot library 9-mer, SEQ ID NO:30; corner of the in-plane matrix (SEQ ID NO:61) (VAKDVAERV; synthetic pilot library peptide D4)
- Langmuir Affinity (Ka) (S. aureus AM1): 5 ± 3 M^−1 × 10000
- Monolayer Concentration (N) (S. aureus AM1): 0.12 ± 0.3 Mol/m^2 × 0.0001
- Langmuir Affinity (Ka) (M. luteus MS2): 5 ± 2 M^−1 × 10000
- Monolayer Concentration (N) (M. luteus MS2): 0.16 ± 0.02 Mol/m^2 × 0.0001
- Binding to S. aureus (fluorescent staining) [3]: Binding was clearly seen
- Binding to S. aureus (fluorescent staining) ([3]; listed as Pilot Library D4): some of the brightest unique staining
- Binding to M. luteus (fluorescent staining) (M. luteus): Binding was clearly seen
- Binding to the other bacteria of the panel [4]: significant levels of binding to several of the other bacteria tested; also recorded: significant binding to several strains

Substance: In-plane refinement 1B: in-plane refined library peptide, SEQ ID NO:50 (IVSYVITQL; synthetic in-plane refinement library peptide B1)
- Langmuir Affinity (Ka) (M. luteus MS2): 2.4 ± 0.8 M^−1 × 10000
- Monolayer Concentration (N) (M. luteus MS2): 0.11 ± 0.02 Mol/m^2 × 0.0001
- Binding to S. aureus (fluorescent staining) [3]: strongest binding
- Binding to immobilized S. aureus relative to peptides of the original pilot library ([3]; refined libraries, fluorescence images): enhanced binding
- Binding to M. luteus (fluorescent staining) (M. luteus): strongest binding
- Binding to the other bacteria of the panel [4]: no significant binding
